Laboratory results as given in ChEMBL document CHEMBL5512665, “A CARM1 Inhibitor Potently Suppresses Breast Cancer Both In Vitro and In Vivo” (J Med Chem, 2024).
The source made the active and inactive calls.

How the values were obtained:
4T1 [1] = experiment: Antitumor activity against mouse 4T1 cells implanted in BALB/C mouse assessed as increase in infiltration of CD8 positive T cells at 25 mg/kg,ip administrated daily for 14 days by immunohistochemical staining based analysis; format: functional, organism-based; details: time 14.0 day
4T1 [2] = experiment: Antitumor activity against mouse 4T1 cells implanted in BALB/C mouse assessed as downregulation of TFF1 gene expression at 50 mg/kg,ip administrated daily for 14 days by RT-qPCR analysis; format: functional, organism-based; details: time 14.0 day
4T1 [3] = experiment: Potentiation of etoposide induced antitumor activity against mouse 4T1 cells implanted in BALB/C mouse assessed as upregulation of IFNalpha gene expression at 25 mg/kg,ip administrated daily for 12 days in presence of 8 mg/kg etoposide administration by RT-qPCR analysis; format: functional, organism-based; details: time 12.0 day
4T1 [4] = experiment: Antitumor activity against mouse 4T1 cells implanted in BALB/C mouse assessed as downregulation of TFF1 gene expression at 25 mg/kg,ip administrated daily for 14 days by RT-qPCR analysis; format: functional, organism-based; details: time 14.0 day
4T1 [5] = experiment: Antitumor activity against mouse 4T1 cells implanted in BALB/C mouse assessed as downregulation of CCND1 gene expression at 25 mg/kg,ip administrated daily for 14 days by RT-qPCR analysis; format: functional, organism-based; details: time 14.0 day
4T1 [6] = experiment: Potentiation of etoposide induced antiproliferative activity against mouse 4T1 cells assessed as inhibition of colony formation at 2.5 uM incubated for 10 days in presence of etoposide by crystal violet staining based analysis; format: functional, cell-based; details: time 10.0 day
MCF7 [7] = experiment: Synergistic antiproliferative activity against human MCF7 cells assessed as downregulation of C-Myc gene expression at 2.5 uM incubated for 6 hrs in presence of tamoxifen by RT-qPCR analysis; format: functional, cell-based
4T1 [8] = experiment: Potentiation of etoposide induced antiproliferative activity against mouse 4T1 cells assessed as upregulation of ISG15 gene expression at 2.5 uM in presence of etoposide by RT-qPCR analysis; format: functional, cell-based
[9] = Toxicity in BALB/C mouse xenografted with human MCF7 cells assessed as change in lung morphology at 50 mg/kg,ip administrated every other day for 29 days; format: organism-based; details: in vivo, 696 h, time 29 day
MCF7 [10] = experiment: Antitumor activity against human MCF7 cells xenografted in BALB/C mouse assessed as downregulation of C-Myc gene expression at 25 mg/kg,ip administrated every other day for 29 days by RT-qPCR analysis; format: functional, organism-based; details: time 29.0 day
MCF7 [11] = experiment: Antitumor activity against human MCF7 cells xenografted in BALB/C mouse assessed as upregulation of CCL5 gene expression at 25 mg/kg,ip administrated every other day for 29 days by RT-qPCR analysis; format: functional, organism-based; details: time 29.0 day
4T1 [12] = experiment: Potentiation of etoposide induced antitumor activity against mouse 4T1 cells implanted in BALB/C mouse assessed as increase in infiltration of CD8 positive T cells at 25 mg/kg,ip administrated daily for 12 days in presence of 8 mg/kg etoposide administration by immunohistochemical staining based analysis; format: functional, organism-based; details: time 12.0 day
MCF7 [13] = experiment: Antitumor activity against human MCF7 cells xenografted in BALB/C mouse assessed as downregulation of PGR gene expression at 25 mg/kg,ip administrated every other day for 29 days by RT-qPCR analysis; format: functional, organism-based; details: time 29.0 day
MCF7 [14] = experiment: Synergistic antitumor activity against human MCF7 cells xenografted in BALB/C mouse assessed as reduction in tumor size at 25 mg/kg,ip administrated every other day for 15 days in presence of 5 mg/kg tamoxifen oral administration; format: functional, organism-based; details: time 15.0 day
MCF7 [15] = experiment: Antitumor activity against human MCF7 cells xenografted in BALB/C mouse assessed as downregulation of TFF1 gene expression at 50 mg/kg,ip administrated every other day for 29 days by RT-qPCR analysis; format: functional, organism-based; details: time 29.0 day
MDA-MB-231 [16] = experiment: Antitumor activity against human MDA-MB-231 cells xenografted in BALB/C mouse assessed as reduction of tumor size at 50 mg/kg,ip administrated daily for 11 days; format: functional, organism-based; details: time 11.0 day
MCF7 [17] = experiment: Antitumor activity against human MCF7 cells xenografted in BALB/C mouse assessed as downregulation of CCND1 gene expression at 25 mg/kg,ip administrated every other day for 29 days by RT-qPCR analysis; format: functional, organism-based; details: time 29.0 day
MCF7 [18] = experiment: Synergistic antitumor activity against human MCF7 cells xenografted in BALB/C mouse assessed as downregulation of FOXC1 gene expression at 25 mg/kg,ip administrated every other day for 15 days in presence of 5 mg/kg tamoxifen oral administration by RT-qPCR analysis; format: functional, organism-based; details: time 15.0 day
MCF7 [19] = experiment: Antitumor activity against human MCF7 cells xenografted in BALB/C mouse assessed as downregulation of NRIP1 gene expression at 50 mg/kg,ip administrated every other day for 29 days by RT-qPCR analysis; format: functional, organism-based; details: time 29.0 day
MCF7 [20] = experiment: Antitumor activity against human MCF7 cells xenografted in BALB/C mouse assessed as reduction of tumor size at 25 mg/kg,ip administrated every other day for 29 days; format: functional, organism-based; details: time 29.0 day
MCF7 [21] = experiment: Antitumor activity against human MCF7 cells xenografted in BALB/C mouse assessed as reduction of tumor size at 50 mg/kg,ip administrated every other day for 29 days; format: functional, organism-based; details: time 29.0 day
MCF7 [22] = experiment: Antitumor activity against human MCF7 cells xenografted in BALB/C mouse assessed as inhibition of tumor growth at 50 mg/kg,ip administrated every other day for 29 days; format: functional, organism-based; details: time 29.0 day
4T1 [23] = experiment: Antitumor activity against mouse 4T1 cells implanted in BALB/C mouse assessed as inhibition of tumor size at 50 mg/kg,ip administrated daily for 14 days; format: functional, organism-based; details: time 14.0 day
MCF7 [24] = experiment: Antitumor activity against human MCF7 cells xenografted in BALB/C mouse assessed as downregulation of GREB1 gene expression at 25 mg/kg,ip administrated every other day for 29 days by RT-qPCR analysis; format: functional, organism-based; details: time 29.0 day
[25] = Toxicity in BALB/C mouse xenografted with human MDA-MB-231 cells assessed as change in lung morphology at 25 mg/kg,ip administrated daily for 11 days; format: organism-based; details: in vivo, 264 h, time 11 day
4T1 [26] = experiment: Antitumor activity against mouse 4T1 cells implanted in BALB/C mouse assessed as downregulation of CCND1 gene expression at 50 mg/kg,ip administrated daily for 14 days by RT-qPCR analysis; format: functional, organism-based; details: time 14.0 day
4T1 [27] = experiment: Antitumor activity against mouse 4T1 cells implanted in BALB/C mouse assessed as downregulation of C-Myc gene expression at 50 mg/kg,ip administrated daily for 14 days by RT-qPCR analysis; format: functional, organism-based; details: time 14.0 day
MCF7 [28] = experiment: Antitumor activity against human MCF7 cells xenografted in BALB/C mouse assessed as upregulation of ISG15 gene expression at 50 mg/kg,ip administrated every other day for 29 days by RT-qPCR analysis; format: functional, organism-based; details: time 29.0 day
4T1 [29] = experiment: Potentiation of etoposide induced antiproliferative activity against mouse 4T1 cells assessed as upregulation of CCL5 gene expression at 2.5 uM in presence of etoposide by RT-qPCR analysis; format: functional, cell-based
MCF7 [30] = experiment: Synergistic antiproliferative activity against human MCF7 cells assessed as downregulation of FOXC1 gene expression at 2.5 uM incubated for 6 hrs in presence of tamoxifen by RT-qPCR analysis; format: functional, cell-based
MDA-MB-231 [31] = experiment: Antitumor activity against human MDA-MB-231 cells xenografted in BALB/C mouse assessed as reduction of tumor weight at 25 mg/kg,ip administrated daily for 11 days; format: functional, organism-based; details: time 11.0 day

Measured: Activity

Cc1ccc(-c2nc(N3CCN(CCN(C)C)CC3)ncc2-c2ccoc2)cc1.Cl.Cl
Non-Toxic: [9] | [25]
active: all other assays above
